Values of other authors as cited in US20050124791A1, “Ion channel” (priority 2001, published 2005).

Tested on: adenylate cyclase from the outer segment of the bovine retina
Conditions: membrane-associated and purified soluble enzyme

Compound | stimulation of the enzyme
Nc1nc2c(ncn2[C@@H]2O[C@H](COP(=O)(O)OP(=O)(O)OP(=O)(O)O)[C@@H](O)[C@H]2O)c(=O)[nH]1 [GTP] | Neither the membrane-associated nor the purified soluble enzyme can be stimulated
Nc1nc2c(ncn2[C@@H]2O[C@H](COP(=O)(O)OP(=O)(O)OP(O)(O)=S)[C@@H](O)[C@H]2O)c(=O)[nH]1 [GTPyS] | Neither the membrane-associated nor the purified soluble enzyme can be stimulated
GMPPhT | Neither the membrane-associated nor the purified soluble enzyme can be stimulated
